The text below walks through data of patent US10947210B2 (priority 2015, dated 2021).

SMILES strings stand for the structures.

The target in the assay is HCV RNA-dependent RNA polymerase (NS5B) (Hepatitis C virus genotype 1b (isolate BK) (HCV), UniProt P26663). The experiment in a line: RNA-Dependent RNA HCV NS5B (polymerase) Assay and IC50 Determination. The assay is classed as biochemical. As to conditions: purified HCV NS5B polymerase, polyA:U16 substrate, 32P-UTP incorporation; read-out: IC50. The method, then: RNA-Dependent RNA HCV NS5B (polymerase) Assay and IC50 Determination.
HCV RNA-dependent RNA polymerase (NS5B), sequence (P26663 2420-3010): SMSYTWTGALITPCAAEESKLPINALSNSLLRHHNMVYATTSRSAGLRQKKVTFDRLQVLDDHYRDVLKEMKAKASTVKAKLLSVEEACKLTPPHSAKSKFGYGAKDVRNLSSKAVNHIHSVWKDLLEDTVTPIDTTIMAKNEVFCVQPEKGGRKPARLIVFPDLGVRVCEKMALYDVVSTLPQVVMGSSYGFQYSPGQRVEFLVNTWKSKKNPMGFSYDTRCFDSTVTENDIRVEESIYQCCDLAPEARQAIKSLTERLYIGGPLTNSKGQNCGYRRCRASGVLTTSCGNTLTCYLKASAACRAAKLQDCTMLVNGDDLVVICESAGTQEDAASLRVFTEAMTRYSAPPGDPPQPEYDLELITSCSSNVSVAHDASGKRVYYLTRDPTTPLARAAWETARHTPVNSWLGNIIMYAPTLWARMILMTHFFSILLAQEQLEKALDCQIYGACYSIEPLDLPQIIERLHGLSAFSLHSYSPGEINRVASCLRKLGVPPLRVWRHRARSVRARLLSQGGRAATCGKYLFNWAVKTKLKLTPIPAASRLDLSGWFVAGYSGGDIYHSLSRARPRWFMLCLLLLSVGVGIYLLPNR
The reaction mixtures consisted of 50 mM Hepes-KOH, pH 7.5, 5 mM MgCl2, 5 mM DTT, 2% glycerol, 0.01% Triton® X-100, 0.5 uM polyA:U16 substrate, purified HCV RNA-dependent RNA polymerase, 10 μM UTP, and ^32P-UTP (Perkin Elmer). The reaction mixtures incubated at 30° C. for 60 minutes, and then filtered through Zeta probe membrane (BioRad). The filter was washed with 5×SSC (75 mM sodium citrate, pH 7 and 750 mM NaCl), and the radiolabeled RNA products were quantitated by microbeta (Perkin Elmer). For IC50 determination, different concentrations of inhibitors were added to the polymerase reaction mixtures, and incubated at 37° C. for 60 minutes. IC50 values were determined using GraFit (Erithaus software).
Table 1 presents IC50 data obtained using the biochemical assay to test representative compounds. Data are presented as follows: “+++” means <0.1 μM; “++” means ≥0.1 μM but <1.0 μM; “+” means ≥1.0 μM.
A word on the IC50: it is the concentration that gives 50% inhibition. Turning to `CNC(=O)c1c(-c2ccc(F)cc2)oc2cc(N(CCOCCOCCOCC(=O)OC(C)(C)C)S(C)(=O)=O)c(C3CC3)cc12` [Compound 23-5A, {2-[2-(2-{[5-Cyclopropyl-2-(4-fluoro-phenyl)-3-methylcarbamoyl-benzofuran-6-yl]-methanesulfonyl-amino}-ethoxy)-ethoxy]-ethoxy}-acetic Acid Tert-butyl Ester], the 50% inhibitory concentration (IC50) is over 1000 nM.

As to `CNC(=O)c1c(-c2ccc(F)cc2)oc2cc(N(CCOCCOCc3ccc(C(=O)O)c([N+](=O)[O-])c3)S(C)(=O)=O)c(C3CC3)cc12` [Compound 29-8, 4-[2-(2-{[5-Cyclopropyl-2-(4-fluoro-phenyl)-3-methylcarbamoyl-benzofuran-6-yl]-methanesulfonyl-amino}-ethoxy)-ethoxymethyl]-2-nitro-benzoic Acid], the 50% inhibitory concentration (IC50) lay in the range of 100 to 1000 nM.

As for `CNC(=O)c1c(-c2ccc(F)cc2)oc2cc(N(CC(=O)NCC(=O)NCCCC(C)C(=O)OC)S(C)(=O)=O)c(C3CC3)cc12` (stereo not drawn) [Compound 10-3B, 5-[2-(2-{[5-Cyclopropyl-2-(4-fluoro-phenyl)-3-methylcarbamoyl-benzofuran-6-yl]-methanesulfonyl-amino}-acetylamino)-acetylamino]-2-methyl-pentanoic Acid Methyl Ester], the half-inhibitory concentration (IC50) was over 1000 nM.

`CNC(=O)c1c(-c2ccc(F)cc2)oc2cc(N(CCOCCOCc3ccc(C(=O)O)c(C)c3)S(C)(=O)=O)c(C3CC3)cc12` [Compound 18-10A, 4-[2-(2-{[5-Cyclopropyl-2-(4-fluoro-phenyl)-3-methylcarbamoyl-benzofuran-6-yl]-methanesulfonyl-amino}-ethoxy)-ethoxymethyl]-2-methyl-benzoic Acid]: the half-maximal inhibitory concentration (IC50) lay in the range of 100 to 1000 nM.

For `CNC(=O)c1c(-c2ccc(F)cc2)oc2cc(N(CCOCCOCCCc3ccccc3C(=O)O)S(C)(=O)=O)c(C3CC3)cc12` [Compound 12-7A, 2-{3-[2-(2-{[5-Cyclopropyl-2-(4-fluoro-phenyl)-3-methylcarbamoyl-benzofuran-6-yl]-methanesulfonyl-amino}-ethoxy)-ethoxy]-propyl}-benzoic Acid], the IC50 was under 100 nM.

For `CCOC(=O)c1cccc(OCCOCCOCCN(c2cc3oc(-c4ccc(F)cc4)c(C(=O)NC)c3cc2C2CC2)S(C)(=O)=O)c1` [Compound 14-6B, 3-{2-[2-(2-{[5-Cyclopropyl-2-(4-fluoro-phenyl)-3-methylcarbamoyl-benzofuran-6-yl]-methanesulfonyl-amino}-ethoxy)-ethoxy]-ethoxy}-benzoic Acid Ethyl Ester], the IC50 is over 1000 nM.

Regarding `CNC(=O)c1c(-c2ccc(F)cc2)oc2cc(N(CCOCCOCCOCCOC)S(C)(=O)=O)c(C3CC3)cc12` [Compound 05-4A, 6-(N-(2,5,8,11-Tetraoxatridecan-13-yl)-methylsulfonamido)-5-cyclopropyl-2-(4-fluorophenyl)-N-methylbenzofuran-3-carboxamide], the half-inhibitory concentration (IC50) was over 1000 nM.

In the case of `CNC(=O)c1c(-c2ccc(F)cc2)oc2cc(N(CCOCCOCCOCCN)S(C)(=O)=O)c(C3CC3)cc12` [Compound 04-10, 6-(N-(2-(2-(2-(2-Aminoethoxy)-ethoxy)-ethoxy)-ethyl)-methylsulfonamido)-5-cyclopropyl-2-(4-fluorophenyl)-N-methylbenzofuran-3-carboxamide], the half-maximal inhibitory concentration (IC50) was over 1000 nM.

In the case of `CNC(=O)c1c(-c2ccc(F)cc2)oc2cc(N(CCOCCOCCOC(C)(C)C(=O)OC(C)(C)C)S(C)(=O)=O)c(C3CC3)cc12` [Compound 26-6B, 2-{2-[2-(2-{[5-Cyclopropyl-2-(4-fluoro-phenyl)-3-methylcarbamoyl-benzofuran-6-yl]-methanesulfonyl-amino}-ethoxy)-ethoxy]-ethoxy}-2-methyl-propionic Acid Tert-butyl Ester], the IC50 is over 1000 nM.

Consider `CNC(=O)c1c(-c2ccc(F)cc2)oc2cc(N(CCOCCOCCOCc3ccc(C(=O)O)cc3)S(C)(=O)=O)c(C3CC3)cc12` [Compound 30-7, 4-{2-[2-(2-{[5-Cyclopropyl-2-(4-fluoro-phenyl)-3-methylcarbamoyl-benzofuran-6-yl]-methanesulfonyl-amino}-ethoxy)-ethoxy]-ethoxymethyl}-benzoic acid], for which the IC50 was over 1000 nM.

With `CNC(=O)c1c(-c2ccc(F)cc2)oc2cc(N(CCOCCOCCc3ccc(C(=O)OC)cc3)S(C)(=O)=O)c(C3CC3)cc12` [Compound 11-5C, 4-{2-[2-(2-{[5-Cyclopropyl-2-(4-fluoro-phenyl)-3-methylcarbamoyl-benzofuran-6-yl]-methanesulfonyl-amino}-ethoxy)-ethoxy]-ethyl}-benzoic Acid Methyl Ester], the IC50 was over 1000 nM.

Turning to `CNC(=O)c1c(-c2ccc(F)cc2)oc2cc(N(CCCCCCOc3ccc(C(=O)O)cc3)S(C)(=O)=O)c(C3CC3)cc12` [Compound 15-8, 4-(6-{[5-Cyclopropyl-2-(4-fluoro-phenyl)-3-methylcarbamoyl-benzofuran-6-yl]-methanesulfonyl-amino}-hexyloxy)-benzoic Acid], the IC50 was in the range of 100 to 1000 nM.

For `CNC(=O)c1c(-c2ccc(F)cc2)oc2cc(N(CCOCCOCCOCc3ccc(C(=O)OC)cc3)S(C)(=O)=O)c(C3CC3)cc12` [Compound 06-6E, 4-{2-[2-(2-{[5-Cyclopropyl-2-(4-fluoro-phenyl)-3-methylcarbamoyl-benzofuran-6-yl]-methanesulfonyl-amino}-ethoxy)-ethoxy]-ethoxymethyl}-benzoic acid methyl ester], the IC50 was 100 to 1000 nM.

As for `CNC(=O)c1c(-c2ccc(F)cc2)oc2cc(N(CCOCCOCc3ccc(OC)c(C(=O)OC)c3)S(C)(=O)=O)c(C3CC3)cc12` [Compound 30-11, 5-[2-(2-{[5-Cyclopropyl-2-(4-fluoro-phenyl)-3-methylcarbamoyl-benzofuran-6-yl]-methanesulfonyl-amino}-ethoxy)-ethoxymethyl]-2-methoxy-benzoic acid methyl ester], the IC50 was over 1000 nM.

As to `CNC(=O)c1c(-c2ccc(F)cc2)oc2cc(N(CC(=O)NCC(=O)NCCCCC(=O)O)S(C)(=O)=O)c(C3CC3)cc12` [Compound 10-4A, 5-[2-(2-{[5-Cyclopropyl-2-(4-fluoro-phenyl)-3-methylcarbamoyl-benzofuran-6-yl]-methanesulfonyl-amino}-acetylamino)-acetylamino]-pentanoic Acid], the IC50 was over 1000 nM.

In the case of `CCOC(=O)CCOCCOCCOCCN(c1cc2oc(-c3ccc(F)cc3)c(C(=O)NC)c2cc1C1CC1)S(C)(=O)=O` [Compound 30-3, 3-{2-[2-(2-{[5-Cyclopropyl-2-(4-fluoro-phenyl)-3-methylcarbamoyl-benzofuran-6-yl]-methanesulfonyl-amino}-ethoxy)-ethoxy]-ethoxy}-propionic acid ethyl ester], the concentration for half-maximal inhibition (IC50) was over 1000 nM.

As to `CNC(=O)c1c(-c2ccc(F)cc2)oc2cc(N(CCCCCOCCCC(C)C(=O)O)S(C)(=O)=O)c(C3CC3)cc12` (stereo not drawn) [Compound 28-8B, 5-(5-{[5-Cyclopropyl-2-(4-fluoro-phenyl)-3-methylcarbamoyl-benzofuran-6-yl]-methanesulfonyl-amino}-pentyloxy)-2-methyl-pentanoic Acid], the IC50 is under 100 nM.

As for `CNC(=O)c1c(-c2ccc(F)cc2)oc2cc(N(CCOCCCc3cccc(C(C)=O)c3)S(C)(=O)=O)c(C3CC3)cc12` [Compound 30-5, 6-({2-[3-(3-Acetyl-phenyl)-propoxy]-ethyl}-methanesulfonyl-amino)-5-cyclopropyl-2-(4-fluoro-phenyl)-benzofuran-3-carboxylic acid methylamide], the IC50 was over 1000 nM.
